Legend:
[1] = system: type 2 diabetes patients; test: Phase 2 monotherapy protocol in treatment naive type 2 diabetes patients; format: in vivo, human
Experimental: A phase 2 clinical treatment protocol was conducted in type 2 diabetes patients using a monotherapy consisting of 17α-ethynylandrost-5-ene-3β,7β,17β-triol. The patients had not been treated with another antidiabetic agent or any insulin sensitizer such as metformin for at least 90 days before the start of dosing. […] The patients (n=51) received 10 mg/day of 17α-ethynylandrost-5-ene-3β,7β,17β-triol (5 mg twice per day) for 84 days and were then followed until day 112. Effects of treatment were examined in subsets of patients having differing BMI values.

[2] = system: RAW264.7 macrophage cells; test: Macrophage chemotaxis assay with 3T3-L1 adipocyte conditioned medium; format: cell-based; conditions: p<0.05
Experimental: The macrophage chemotaxis assay was conducted with differentiated 3T3-L1 adipocytes (day +11 post differentiation) incubated for 24 hours with compounds (10 ng/mL TNFα with or without 100 nM 17α-ethynylandrost-5-ene-3β,7β,17β-triol) or vehicle in DMEM with 0.2% FFA- and endotoxin-free BSA. Conditioned medium (CM) was collected and kept frozen in single-use aliquots. For the chemotaxis assay, 600 μl/well of adipocyte CM was aliquoted into 24-well tissue culture plates. 2×10^5 RAW264.7 macrophage cells resuspended in DMEM containing 0.2% BSA were plated in the upper transwell chamber ([…], 24-transwell format; Corning, Lowell, Mass.). After 3 hours of migration, the RAW264.7 cells were fixed in formalin and stained with DAPI. Cells in the upper chamber that had not migrated were removed. Cells found on the filter facing the lower chamber were counted as cells having performed chemotaxis and quantified with the Simple PCI imaging software (Compix Inc., Cranberry Township, Pa.).

[3] = system: pre-diabetic hyperglycemic patients and patients having type 2 diabetes; test: Glucose clamp (M value) in 28-day clinical trial of oral capsules; format: in vivo, human
Experimental: Groups of pre-diabetic hyperglycemic patients and patients having type 2 diabetes were treated for 28 days with the experimental drug 17α-ethynylandrost-5-ene-3β,7β,17β-triol (oral capsules) or with placebo. […] Placebos were obtained with each treatment cohort based on protocol randomization of 2 treated:1 placebo. The pre-diabetic patients were obese (body mass index ≧29 kg/m^2) and glucose intolerant (fasting plasma glucose <126 mg/dL; 2-hr post prandial glucose 140-200 mg/dL after 75 g oral glucose). The diabetic patients were dosed with 10 mg/day for 28 days (n=6; cohort 6). […] Patients with an M value of <5 mg glucose/kg/min (M<5) were considered insulin resistant and patients with an M value of >5 mg glucose/kg/min (M>5) were considered insulin sensitive or essentially normal for whole body glucose metabolism.
The analysis of responders used standard analysis. Due to the cohort sizes and the ongoing basis of this clinical protocol, data for surrogates that corresponded to significance at p≦0.10 (trend) were considered positive evidence of surrogacy of the biomarker for the M<5 insulin resistant condition.

[4] = Blood levels after oral immediate release formulations; format: in vivo, human; conditions: for serum levels remained at or above: entire day
Experimental: Blood levels of 17α-ethynylandrost-5-ene-3β,7β,17β-triol were determined in adult patients dosed with a range of dosages as oral immediate release formulations. The formulations were essentially as described in example 3, with capsules containing 1 mg/capsule, 5 mg/capsule, 10 mg/capsule, 25 mg/capsule or 50 mg/capsule. These unit doses were filled into hard gelatin capsules (size #1 for […] doses; size #2 for the 1 and 5 mg doses) and micronized compound (D90˜[…]) was used.
Two capsules containing 1 mg of 17α-ethynylandrost-5-ene-3β,7β,17β-triol were administered twice per day to patients receiving a 4 mg/day total dose. […] Blood levels of the compound were at or above about 0.5 ng/mL for over 2 hours/day. […] In other patients receiving 4 mg/day for 28 days, there was a lower degree of response than patients receiving higher doses and 4 mg/day was considered to be the minimal effective dose.
Analysis of some of the evaluable patients from example 1 gave the following results. […] Drug exposure over 24 hours (AUC0-24) in patients receiving 10 mg/day (5 mg twice per day) ranged from 15.7 ng·hr/mL to 190 ng·hr/mL and from 72 ng·hr/mL to 198 ng·hr/mL in patients receiving 20 mg/day (10 mg twice per day). Drug exposure in patients receiving 40 mg/day (20 mg twice per day) ranged from 60 ng·hr/mL to 209 ng·hr/mL.

[5] = TNFα-treated adipocyte CM, adipocytes pretreated
[6] = 2 mg twice per day (4 mg/day), n=2

C#C[C@]1(O)CC[C@H]2[C@@H]3[C@@H](O)C=C4C[C@@H](O)CC[C@]4(C)[C@H]3CC[C@@]21C [17α-ethynylandrost-5-ene-3β,7β,17β-triol]
C-reactive protein ([1]; BMI greater than 31.3 kg/m^2, day 57, p=0.053): trend to decreased
patients with decreased HbA1c to <7% ([1]; BMI greater than 31.3 kg/m^2, day 84, placebo 0/14): 2/9
decreases in serum MCP-1 ([1]; BMI greater than 31.3 kg/m^2, days 29, 57 and 84): > 600 pg/mL
observed effects in lower BMI subset ([1]; patients having a BMI of less than about 31): less pronounced
HbA1c decrease ([1]; patients with BMI greater than 31.3 kg/m^2 (n=22), 10 mg/day for 84 days, day 112, p=0.041): 1.1%
macrophage secretion of CCL5/RANTES [2, 5]: significantly decreased
macrophage secretion of MCP-1/CCL2 [2, 5]: significantly decreased
reduction of macrophage migration stimulated by CM from TNFα-treated adipocytes ([2]; adipocytes pretreated with 100 nM): ~30%
minimal effective dose ([3]; 28 days, lower degree of response than higher doses): 4 mg/day
change in M value ([3]; interim analysis, M<5, two patients treated with 20 mg/day): increased
change in M value ([3]; interim analysis, M<5 patients, 10 mg/day (5 mg twice per day) vs placebo, p=0.0286): significantly increased
change in M value ([3]; interim analysis, M<5 patients, pooled 10 mg/day or 20 mg/day vs placebo, p=0.0095): significantly increased
change in M value ([3]; interim analysis, M>5 patients, 10 mg/day, 20 mg/day or pooled vs placebo): no statistically significant difference
change in M value ([3]; interim analysis, overall protocol, 20 mg/day group, p=0.0823): trends to significance
change in M value ([3]; interim analysis, overall protocol, 'mg/day group', p=0.0513): trends to significance
change in M value ([3]; interim analysis, overall protocol, pooled patients, p=0.0278): significantly increased
M value (glucose control) ([3]; one pre-diabetic hyperglycemic patient, 28 days of dosing 4 mg/day): increased
effectiveness of treatment by M value subgroup ([3]; pre-diabetic hyperglycemic patients having M<5): most effective
change in M value ([3]; second interim analysis, M<5, 10 mg/day vs placebo, p=0.002): significantly increased
change in M value ([3]; second interim analysis, M<5, pooled 10 mg/day or 20 mg/day vs placebo, p=0.0007): highly significant positive change
change in M value ([3]; second interim analysis, M>5 patients, 10 mg/day, 20 mg/day or pooled vs placebo): no statistically significant difference
change in M value ([3]; second interim analysis, overall protocol, 10 mg/day group, p=0.04): significantly increased
change in M value ([3]; second interim analysis, overall protocol, 20 mg/day group, p=0.04): significantly increased
change in M value ([3]; second interim analysis, overall protocol, pooled patients, p=0.0109): significantly increased
time with blood levels at or above about 0.5 ng/mL ([4]; 2 mg twice per day): over 2 hours/day
peak blood levels [4, 6]: 1 to 2 ng/mL
time of peak blood levels after dosing [4, 6]: 2 to 3 h
blood levels maintained ([4]; 2 mg twice per day, for over 2 hours/day): ≥ 0.5 ng/mL
peak serum levels ([4]; 10 mg twice per day (20 mg/day on a single day), n=2): 10 to 30 ng/mL
serum levels remained at or above ([4]; 10 mg twice per day): ≥ 3 ng/mL
serum levels remained at or above ([4]; 25 mg twice per day): ≥ 3 ng/mL
peak serum levels ([4]; 50 mg twice per day (100 mg/day), n=2): 80 to 150 ng/mL
serum levels remained at or above ([4]; 50 mg twice per day (100 mg/day)): ≥ 10 ng/mL
induction of cytochromes (liver enzymes) ([4]; 100 mg/day dose level): not observed
fasted Cmax lower compared to patients dosed after a meal ([4]; fasted vs fed status): up to 60%
mean Cmax ([4]; females (n=3), 20 mg/day (10 mg twice per day)): 13.8 ng/mL
Cmax levels in females vs males ([4]; in vivo): sometimes higher
total drug exposure levels, adult females vs adult males ([4]; in vivo): somewhat higher
mean Cmax ([4]; males (n=4), 20 mg/day (10 mg twice per day)): 15.1 ng/mL
mean Cmax ([4]; pre-diabetic hyperglycemic females (n=6), 10 mg per day (5 mg twice per day)): 11.2 ng/mL
mean Cmax ([4]; pre-diabetic hyperglycemic males (n=2), 10 mg per day (5 mg twice per day)): 3.8 ng/mL
mean Cmax ([4]; rheumatoid arthritis patients, females (n=6), 40 mg/day (20 mg twice per day)): 27.4 ng/mL
mean Cmax ([4]; rheumatoid arthritis patients, males (n=2), 40 mg/day (20 mg twice per day)): 43.7 ng/mL

From US20100227841A1, “Patient populations and treatment methods” (Harbor BioSciencs, Inc., priority 2008, published 2010)
